Data published in patent US8999358B2, “Aqueous insecticidal compositions and the use thereof for protecting lignocellulose-containing materials” (BASF Aktiengesellschaft, priority 2005, dated 2015).

Tested on: wood-destroying soil-dwelling termites (Reticulitermes santonensis)
Experiment: Laboratory termite resistance test of treated wood specimens (AWPA E1-97) after leaching according to DIN EN 84
Assay type: in vivo
Details: Test termite R. santonensis; Pinus spp. (Southern Yellow Pine) specimens 25x25x6 mm^3; AWPA E1-97, 4 weeks; α-cypermethrin concentration in wood giving score 10 to 9
Description: The aqueous active ingredient composition according to the invention of Example 3 was diluted with water to three different active ingredient concentrations. For comparison purposes, the anionic dispersion D6, which is not in accordance with the invention, was studied, and α-cypermethrin was dissolved in acetone, and the solution was diluted with further acetone to give the active ingredient concentrations in question.
To determine the limits of the efficacy of the composition according to the invention with regard to wood-destroying soil-dwelling termites (Reticulitermes santonensis), wood specimens of Pinus spp. with the dimensions 25×25×6 mm^3 (Southern Yellow Pine) were tested in accordance with the American test standard AWPA E1-97 (see, in this context, “Standard method for laboratory evaluation to determine resistance to subterranean termites”, American Wood-Preservers' Association, 2001) under constrained experimental conditions after leaching according to DIN EN 84: 1997-01 (see, in this context, “accelerated aging of treated timber before biological tests”, European standardization committee).
The destruction of the timber caused by attack by the termites was registered after 4 weeks of testing by visually scoring the timber specimens as specified in AWPA E1-97. In addition, the mortality rate among the termites was estimated. […]

## CC1(C)C(C=C(Cl)Cl)C1C(=O)OC(C#N)c1cccc(Oc2ccccc2)c1 (stereo not drawn) [Solution of α-cypermethrin, α-cypermethrin]
  Limits of the efficacy after leaching (EN 84): 29-40 g/m^3
